The record followed here is patent US8809321B2, “Diaryl ether linked pyrrolo [2,1-c][1,4] benzodiazepine hybrids and process for the preparation thereof” (Council of Scientific and Industrial Research, priority 2011, dated 2014).

For assay [1], the system named is A549 lung cancer cell line. The assay is described as follows: MTT assay, 48 h continuous drug exposure, A549. It counts as cell-based, human. As to conditions: 48 h exposure. The protocol: (§1) Some of the C8-linked diaryl ether-PBD hybrids have been tested against eleven human tumour cell lines derived from seven cancer types (lung cancer, colon cancer, cervix, ovarian cancer, oral cancer, prostate cancer and breast cancer) as per Tata protocol as shown in Table 2. For each compound, dose response curves for each cell line were measured at a minimum of five concentrations at 10 fold dilutions. A protocol of 48 h continuous drug exposure was used and a MTT assay was used to estimate cell viability or growth. The percent of cell growth (GI50) compared with the control was calculated. Some of the compounds have been evaluated for their in vitro cytotoxicity in eleven cell lines from seven human cancer types. The results are expressed as GI50 determined relative to that of untreated control cells (Table-2).

Assay [2] concerns PC3 prostrate cancer cell line. The assay is described as follows: MTT assay, 48 h continuous drug exposure, PC3. It counts as cell-based, human. To be noted: prostrate cancer cell line; 48 h exposure; MTT; read-out: GI50 PC3. Here is the method: (§2) For each compound, dose response curves for each cell line were measured at a minimum of five concentrations at 10 fold dilutions. A protocol of 48 h continuous drug exposure was used and a MTT assay was used to estimate cell viability or growth. The percent of cell growth (GI50) compared with the control was calculated.
On the technique in general: Formazan colour is commonly taken as a measure of viable cells.

The subject of assay [3] is ZR-751 breast cancer cell line. The assay is described as follows: MTT assay, 48 h continuous drug exposure, ZR-751. It counts as cell-based, human. To be noted: breast cancer cell line; 48 h exposure; MTT; read-out: GI50 ZR-751. Here is the method: as §2
The test system of assay [4] is Hop62 lung cancer cell line. Nature of the assay: MTT assay, 48 h continuous drug exposure, Hop62. To be noted: lung cancer cell line; 48 h exposure; MTT; read-out: GI50 Hop62. The assay is classed as cell-based, human. The protocol: as §2
The subject of assay [5] is MCF7 breast cancer cell line. Nature of the assay: MTT assay, 48 h continuous drug exposure, MCF7. To be noted: 48 h exposure. The assay is classed as cell-based, human. The protocol: as §1
The subject of assay [6] is A2780 ovarian cancer cell line. Nature of the assay: MTT assay, 48 h continuous drug exposure, A2780. The assay is classed as cell-based, human. As to conditions: ovarian cancer cell line; 48 h exposure; MTT; read-out: GI50 A2780. The protocol: as §2
In assay [7] the test system is duplex-form calf thymus DNA (CT-DNA). The assay is described as follows: Thermal denaturation studies with calf thymus DNA (DNA binding affinity). As to conditions: [PBD]:[DNA] molar ratio 1:5, CT-DNA 100 μM, ligand 20 μM, sodium phosphate buffer pH 7.00; for (ΔTm ° C.) after incubation at 37° C. for 0 h: 0 h at 37° C.; for (ΔTm ° C.) after incubation at 37° C. for 18 h: 18 h at 37° C. The protocol:
DNA Binding Affinity of Diaryl Ether Linked PBD Hybrids: Compounds have been subjected to thermal denaturation studies with duplex-form calf thymus DNA (CT-DNA) using a modification of a reported procedure (Newman, M. S. Carcinog-compr. Surv. 1976, 1, 203; ([…].; Loy, M.; Hoffman, Carcinog-compr. […] The DNA-PBD solutions have been incubated at 37° C. for 0 and 18 h prior to analysis. […] DNA helix→coil transition temperatures (Tm) have been obtained from the maxima in the d(A260)/dT derivative plots. […] The DNA binding activity for these novel C8-linked diaryl ether PBD hybrids has been examined by thermal denaturation studies using calf thymus (CT) DNA. […] The data for the compounds are included in Table 1 for comparison.

Assay [8] deals with Gurav oral cancer cell line. The assay is described as follows: MTT assay, 48 h continuous drug exposure, Gurav. It counts as cell-based, human. To be noted: oral cancer cell line; 48 h exposure; MTT; read-out: GI50 Gurav. Here is the method: as §2
In assay [9] the test system is Colo205 colon cancer cell line. Nature of the assay: MTT assay, 48 h continuous drug exposure, Colo205. The assay is classed as cell-based, human. To be noted: 48 h exposure. The protocol: as §1
Assay [10] concerns DWD oral cancer cell line. The assay is described as follows: MTT assay, 48 h continuous drug exposure, DWD. The assay is classed as cell-based, human. As to conditions: oral cancer cell line; 48 h exposure; MTT; read-out: GI50 DWD. Here is the method:
as §2

Assay [11] concerns SiHa Cervix cancer cell line. Nature of the assay: MTT assay, 48 h continuous drug exposure, SiHa. The assay is classed as cell-based, human. To be noted: Cervix cancer cell line; 48 h exposure; MTT; read-out: GI50 SiHa. The protocol:
as §2

Broadly, the GI50 is the concentration giving 50% growth inhibition. As for `COc1ccc(Oc2ccc(OCCCCCOc3cc4c(cc3OC)C(=O)N3CCC[C@H]3C=N4)cc2[N+](=O)[O-])cc1OC` [20c, 7-Methoxy-(8-3-[4-(3,4-dimethoxyphenoxy)-3-nitrophenoxy]pentyloxy)-(11aS)-1,2,3,11a-tetrahydro-5H-pyrrolo[2,1-c][1,4]benzodiazepin-5-one], the concentration for 50% growth inhibition (GI50) in [1] worked out at 150 nM; in assay [2] it was 160 nM; in assay [3], 130 nM; in [4], 140 nM; in assay [5], 140 nM; in [6], 140 nM. Further, the GI50 worked out at 1240 nM in [8], 130 nM in assay [9], 130 nM in assay [10] and 2470 nM in [11]. The “(ΔTm ° C.) after incubation at 37° C. for 0 h” value in assay [7] came to 4.9 °C. The “(ΔTm ° C.) after incubation at 37° C. for 18 h” value in assay [7] stood at 5.6 °C.
As for `COc1ccc(Oc2cccc(OCCCCCOc3cc4c(cc3OC)C(=O)N3CCC[C@H]3C=N4)c2[N+](=O)[O-])cc1OC` [20g, 7-Methoxy-(8-3-[3-(3,4-dimethoxyphenoxy)-2-nitrophenoxy]pentyloxy)-(11aS)-1,2,3,11a-tetrahydro-5H-pyrrolo[2,1-c][1,4]benzodiazepin-5-one], the concentration for 50% growth inhibition (GI50) in [1] is 190 nM; in assay [2], 2250 nM; in [3], 190 nM; in assay [4] it was 190 nM; in assay [5] it was 2100 nM; in [6] it was 2000 nM. The GI50 in assay [8] came to 160 nM; in assay [9] it was 170 nM; in assay [10] it was 180 nM; in assay [11] it was 2500 nM. Moreover, the “(ΔTm ° C.) after incubation at 37° C. for 0 h” value in assay [7] is 4.5 °C. Further, in assay [7], the “(ΔTm ° C.) after incubation at 37° C. for 18 h” value worked out at 6.0 °C.
On to `COc1cc2c(cc1OCCCCCOc1ccc(Oc3cc(OC)c(OC)c(OC)c3)c([N+](=O)[O-])c1)N=C[C@@H]1CCCN1C2=O` [21c, 7-Methoxy-(8-3-[4-(3,4,5-timethoxyphenoxy)-3-nitrophenoxy]pentyloxy)-(11aS)-1,2,3,11a-tetrahydro-5H-pyrrolo[2,1-c][1,4]benzodiazepin-5-one], for which the GI50 is 2500 nM in assay [1]; 1580 nM in assay [2]; 1600 nM in [3]; 3100 nM in assay [4]; 1850 nM in assay [5]; 1560 nM in [6]. In addition, the GI50 in assay [8] is 2860 nM; in assay [9], 2510 nM; in assay [10] it was 2130 nM; in [11] it was 1260 nM. Also, in assay [7], the “(ΔTm ° C.) after incubation at 37° C. for 0 h” value came to 3.9 °C. Moreover, the “(ΔTm ° C.) after incubation at 37° C. for 18 h” value in assay [7] came to 5.1 °C.
For the compound `COc1cc2c(cc1OCCCCCOc1cccc(Oc3cc(OC)c(OC)c(OC)c3)c1[N+](=O)[O-])N=C[C@@H]1CCCN1C2=O` [21g, 7-Methoxy-(8-3-[3-(3,4,5-trimethoxyphenoxy)-2-nitrophenoxy]pentyloxy)-(11aS)-1,2,3,11a-tetrahydro-5H-pyrrolo[2,1-c][1,4]benzodiazepin-5-one], the 50% growth inhibitory concentration (GI50) in [1] came out at 2020 nM; in assay [2] it was 190 nM; in [3] it was 180 nM; in [4], 2130 nM; in [5], 2300 nM; in [6], 2100 nM. For the same compound, the GI50 amounted to 160 nM in [8], 170 nM in assay [9], 170 nM in [10] and 2210 nM in assay [11]. Further, the “(ΔTm ° C.) after incubation at 37° C. for 0 h” value in [7] was 4.9 °C. Besides, the “(ΔTm ° C.) after incubation at 37° C. for 18 h” value in assay [7] was determined as 6.2 °C.
With `COc1ccc(Oc2ccc(C(=O)N3CCN(CCCCCOc4cc5c(cc4OC)C(=O)N4CCC[C@H]4C=N5)CC3)cc2N)cc1` [22c], the GI50 in [1] turned out to be 180 nM; in assay [2] it was 190 nM; in assay [3], 190 nM; in assay [4] it was 2300 nM; in assay [5], 170 nM; in [6], 190 nM. In addition, the GI50 in assay [8] was found to be 160 nM; in assay [9], 170 nM; in [10], 180 nM; in [11], 3250 nM. Moreover, in assay [7], the “(ΔTm ° C.) after incubation at 37° C. for 0 h” value is 3.1 °C. In [7], the “(ΔTm ° C.) after incubation at 37° C. for 18 h” value came to 4.2 °C.
In the case of `COc1ccc(Oc2ccc(C(=O)N3CCN(CCCCCOc4cc5c(cc4OC)C(=O)N4CCC[C@H]4C=N5)CC3)cc2N)cc1OC` [23c], the 50% growth inhibitory concentration (GI50) in [1] was 180 nM; in [2], 170 nM; in [3], 190 nM; in [4], 2280 nM; in assay [5], 150 nM; in [6], 180 nM. Besides, the 50% growth inhibitory concentration (GI50) in [8] was determined as 120 nM; in assay [9], 160 nM; in assay [10], 150 nM; in [11], 2470 nM. Also, the “(ΔTm ° C.) after incubation at 37° C. for 0 h” value in assay [7] stood at 3.6 °C. In addition, the “(ΔTm ° C.) after incubation at 37° C. for 18 h” value in [7] was found to be 4.5 °C.
As to `COc1cc2c(cc1OCCCCCN1CCN(C(=O)c3ccc(Oc4cc(OC)c(OC)c(OC)c4)c(N)c3)CC1)N=C[C@@H]1CCCN1C2=O` [24c], the GI50 is 170 nM in [1]; 170 nM in assay [2]; 180 nM in assay [3]; 2260 nM in assay [4]; 170 nM in assay [5]; 2000 nM in assay [6]. The concentration for 50% growth inhibition (GI50) worked out at 150 nM in assay [8], 540 nM in assay [9], 160 nM in [10] and 2500 nM in assay [11]. In addition, the “(ΔTm ° C.) after incubation at 37° C. for 0 h” value in assay [7] was 4.5 °C. Besides, the “(ΔTm ° C.) after incubation at 37° C. for 18 h” value in [7] is 6.0 °C.
With `COc1ccc(Oc2ccc(C(=O)N3CCN(CCCCCOc4cc5c(cc4OC)C(=O)N4CCC[C@H]4C=N5)CC3)cc2[N+](=O)[O-])cc1` [31c], the 50% growth inhibitory concentration (GI50) amounted to 170 nM in assay [1]; 170 nM in assay [2]; 180 nM in assay [3]; 190 nM in assay [4]; 180 nM in assay [5]; 190 nM in assay [6]. Further, the concentration for 50% growth inhibition (GI50) in assay [8] was 160 nM; in assay [9], 170 nM; in [10], 180 nM; in assay [11], 3880 nM. Besides, the “(ΔTm ° C.) after incubation at 37° C. for 0 h” value in assay [7] came to 3.9 °C. Besides, the “(ΔTm ° C.) after incubation at 37° C. for 18 h” value in assay [7] came out at 5.6 °C.
For the compound `COc1ccc(Oc2ccc(C(=O)N3CCN(CCCCCOc4cc5c(cc4OC)C(=O)N4CCC[C@H]4C=N5)CC3)cc2[N+](=O)[O-])cc1OC` [32c], the concentration for 50% growth inhibition (GI50) came out at 140 nM in assay [1]; 190 nM in assay [2]; 150 nM in assay [3]; 180 nM in [4]; 170 nM in assay [5]; 150 nM in assay [6]. Moreover, the GI50 in assay [8] came out at 120 nM; in [9], 160 nM; in [10] it was 140 nM; in assay [11], 1850 nM. In addition, the “(ΔTm ° C.) after incubation at 37° C. for 0 h” value in assay [7] came out at 4.8 °C. For the same compound, the “(ΔTm ° C.) after incubation at 37° C. for 18 h” value in assay [7] was 7.3 °C.
In the case of `COc1cc2c(cc1OCCCCCN1CCN(C(=O)c3ccc(Oc4cc(OC)c(OC)c(OC)c4)c([N+](=O)[O-])c3)CC1)N=C[C@@H]1CCCN1C2=O` [33c], the GI50 in [1] came out at 2240 nM; in [2], 2150 nM; in [3], 2200 nM; in assay [4], 2670 nM; in assay [5], 180 nM; in [6] it was 2300 nM. Moreover, the concentration for 50% growth inhibition (GI50) worked out at 170 nM in [8], 150 nM in assay [9], 2100 nM in assay [10] and 2250 nM in assay [11]. Besides, the “(ΔTm ° C.) after incubation at 37° C. for 0 h” value in assay [7] was 4.2 °C. Further, in assay [7], the “(ΔTm ° C.) after incubation at 37° C. for 18 h” value turned out to be 6.1 °C.
